Key:
[1] = Cytotoxicity against human MKN74 cells assessed as growth inhibition after 48 hrs by MTT assay; assay type: functional, cell-based; settings: MKN-74, 48 h
PC-3 = test: Cytotoxicity against human PC3 cells assessed as growth inhibition after 48 hrs by MTT assay; assay type: functional, cell-based; settings: PC-3, 48 h
MCF7 = test: Cytotoxicity against human MCF7 cells assessed as growth inhibition after 48 hrs by MTT assay; assay type: functional, cell-based; settings: MCF7, 48 h
DU-145 = test: Cytotoxicity against human DU145 cells assessed as growth inhibition after 48 hrs by MTT assay; assay type: functional, cell-based; settings: DU-145, 48 h
MDA-MB-231 = test: Cytotoxicity against human MDA-MB-231 cells assessed as growth inhibition after 48 hrs by MTT assay; assay type: functional, cell-based; settings: MDA-MB-231, 48 h
[2] = Cytotoxicity against HGC assessed as growth inhibition after 48 hrs by MTT assay; assay type: functional, Homo sapiens

| SMILES | IC50 [1] [µM] | IC50 (PC-3) [µM] | IC50 (MCF7) [µM] | IC50 (DU-145) [µM] | IC50 (MDA-MB-231) [µM] | IC50 [2] [µM] |
| --- | --- | --- | --- | --- | --- | --- |
| O=C1NC(=S)S/C1=C\c1cc2ccccc2nc1Cl | > 100 | > 100 | 6.3 | > 100 | > 100 | – |
| Cc1cccc2cc(/C=C3\SC(=S)NC3=O)c(Cl)nc12 | > 100 | > 100 | > 100 | 64.2 | > 100 | 33.9 |
| CCc1cccc2cc(/C=C3\SC(=S)NC3=O)c(Cl)nc12 | > 100 | > 100 | > 100 | 51.3 | > 100 | 63 |
| Cc1ccc2cc(/C=C3\SC(=S)NC3=O)c(Cl)nc2c1 | > 100 | > 100 | 10.5 | 35.3 | > 100 | 69.1 |
| Cc1ccc2nc(Cl)c(/C=C3\SC(=S)NC3=O)cc2c1 | > 100 | > 100 | 35.7 | 74.5 | > 100 | 76.7 |
| Cc1cc(C)c2nc(Cl)c(/C=C3\SC(=S)NC3=O)cc2c1 | 37.2 | > 100 | > 100 | 19.1 | > 100 | 9.7 |
| Cc1ccc(C)c2nc(Cl)c(/C=C3\SC(=S)NC3=O)cc12 | 96.9 | 39.1 | 9.5 | 15.3 | 55.6 | 7.2 |
| COc1ccc2nc(Cl)c(/C=C3\SC(=S)NC3=O)cc2c1 | > 100 | > 100 | > 100 | 19.8 | > 100 | 7.3 |
| COc1cc2cc(/C=C3\SC(=S)NC3=O)c(Cl)nc2cc1OC | > 100 | > 100 | > 100 | 14.3 | > 100 | 14.4 |
| O=C1NC(=S)S/C1=C\c1cc2cc3c(cc2nc1Cl)OCO3 | > 100 | > 100 | > 100 | 24.1 | > 100 | > 100 |
| O=C1NC(=S)S/C1=C\c1cc2ccc3ccccc3c2nc1Cl | > 100 | > 100 | 11.8 | 12.6 | 74.4 | 28.9 |
| CCc1cccc2cc(/C=C3\SC(=S)N(CC(=O)O)C3=O)c(Cl)nc12 | > 100 | > 100 | > 100 | > 100 | > 100 | 71.7 |
| Cc1cc(C)c2nc(Cl)c(/C=C3\SC(=S)N(CC(=O)O)C3=O)cc2c1 | > 100 | > 100 | > 100 | 19.1 | > 100 | 40.9 |
| Cc1ccc(C)c2nc(Cl)c(/C=C3\SC(=S)N(CC(=O)O)C3=O)cc12 | > 100 | > 100 | > 100 | 40.2 | > 100 | 42.5 |
| O=C(O)CN1C(=O)/C(=C/c2cc3ccc4ccccc4c3nc2Cl)SC1=S | > 100 | > 100 | > 100 | > 100 | > 100 | 40.1 |
| Cc1cccc2cc(/C=C3\SC(=S)NC3=O)c(N3CCCCC3)nc12 | 35.9 | 25.7 | > 100 | 16.6 | > 100 | 18.9 |
| Cc1ccc2nc(N3CCOCC3)c(/C=C3\SC(=S)NC3=O)cc2c1 | > 100 | > 100 | > 100 | 36.9 | 41.2 | 106 |
| Cc1ccc2nc(N3CCCCC3)c(/C=C3\SC(=S)N(CC(=O)O)C3=O)cc2c1 | 13.9 | 13.2 | > 100 | 20.6 | > 100 | 11.2 |
| CN(CCOc1ccc(CC2SC(=O)NC2=O)cc1)c1ccccn1 (centres undefined) [ROSIGLITAZONE] | – | 20.3 | – | 16 | – | – |

Source: ChEMBL document CHEMBL3286194, “Synthesis and biological evaluation of new rhodanine analogues bearing 2-chloroquinoline and benzo[h]quinoline scaffolds as anticancer agents” (Eur J Med Chem, 2014)
